Results on 20 molecules are retold here after patent US10647747B2, “Cyclosporin derivatives and uses thereof” (S&T Global Inc., priority 2010, dated 2020).

Each structure is given as a SMILES string. pEC50: −log10 of the molar value. Where two headings read alike, the source gives them in different places. *1 amine or outer side, *2 acyl side, *3 side chain or, on linkers, in order; H or OH if unused. Where a SMILES comes first, the peptide text is derived from it. [ ]: non-standard residue; d: D form. The star is where a group is joined. ξ: configuration not given here. MeBmt = C/C=C/C[C@@H](C)[C@@H](O)[C@H](NC)C(=O)O; X1 = CN([C@H](SCCCN1CCOCC1)C(=O)[*:2])[*:1]; X3 = CC=CCC(C)C(O)C(C(=O)[*:2])N(C)[*:1]; NMeIle(3ξ) = CCC(C)[C@H](NC)C(=O)O; NMeI = CC[CH](C)[CH](NC)C(=O)O; NMeL = CN[CH](CC(C)C)C(=O)O; NMeV = CN[CH](C(=O)O)C(C)C; Et2NCH2CH2 = CCN(CC)CC*; NMeC = CN[CH](CS)C(=O)O; Abu = CC[CH](N)C(=O)O

Data set [1] is described as follows: Stability testing: epimerization of cyclosporin derivatives in methanol, monitored by HPLC. Format: physicochemical. Particulars: for Epimerization % after 168 hours: Table 11, MeOH at 50° C.-58° C.; for Epimerization %: Table 10, MeOH at 50° C.
The subject of data set [2] is HCV replicon in cell line ET (luc-ubi-neo/ET), Huh7 human hepatoma. As to the kind of experiment: HCV subgenomic replicon assay, luciferase end point. It is filed as cell-based. As to conditions: read-out: Antiviral activity EC50.
The mark [3] stands for this setting: HCV subgenomic replicon, cell line ET (luc-ubi-neo/ET) Huh7, luciferase end point.
Where [4] appears, read: Table 16, HCV replicon luciferase.
Setting [5] is: Hepatitis C virus, Huh-7, HCV subgenomic replicon, cell line ET (luc-ubi-neo/ET) Huh7, luciferase end point.

As for `C/C=C/C[C@@H](C)[C@@H](O)[C@H]1C(=O)N[C@@H](CC)C(=O)N(C)[C@H](CSCCCN(C)C)C(=O)N(C)[C@@H](CC(C)(C)O)C(=O)N[C@@H](C(C)C)C(=O)N(C)[C@@H](CC(C)C)C(=O)N[C@@H](C)C(=O)N[C@H](C)C(=O)N(C)[C@@H](CC(C)C)C(=O)N(C)[C@@H](CC(C)C)C(=O)N(C)[C@@H](C(C)C)C(=O)N1C`, the “Epimerization % after 168 hours” value in data set [1] is listed as 0%.

On to `C/C=C/C[C@@H](C)[C@@H](O)[C@H]1C(=O)N[C@@H](CC)C(=O)N(C)[C@H](SCCCN(CC)CC)C(=O)N(C)[C@@H](CC(C)(C)OC)C(=O)N[C@@H](C(C)C)C(=O)N(C)[C@@H](CC(C)C)C(=O)N[C@@H](C)C(=O)N[C@H](C)C(=O)N(C)[C@@H](CC(C)C)C(=O)N(C)[C@@H](CC(C)C)C(=O)N(C)[C@@H](C(C)C)C(=O)N1C`, for which the Epimerization % in data set [1] (29 hours), in data set [1] (77 hours) and in data set [1] (125 hours) was 0% throughout.

On to `C/C=C/C[C@@H](C)[C@@H](O)[C@H]1C(=O)N[C@@H](CC)C(=O)N(C)[C@H](COCCN(CC)CC)C(=O)N(C)[C@@H](CC(C)(C)O)C(=O)N[C@@H](C(C)C)C(=O)N(C)[C@@H](CC(C)C)C(=O)N[C@@H](C)C(=O)N[C@H](C)C(=O)N(C)[C@@H](CC(C)C)C(=O)N(C)[C@@H](CC(C)C)C(=O)N(C)[C@@H](C(C)C)C(=O)N1C`, for which the “Epimerization % after 168 hours” value in data set [1] was 0%.

As to `C/C=C/C[C@@H](C)[C@@H](O)[C@H]1C(=O)N[C@@H](CC)C(=O)N(C)[C@H](SCCCN2CCOCC2)C(=O)N(C)[C@@H](CC(C)(C)OC)C(=O)N[C@@H](C(C)C)C(=O)N(C)[C@@H](CC(C)C)C(=O)N[C@@H](C)C(=O)N[C@H](C)C(=O)N(C)[C@@H](CC(C)C)C(=O)N(C)[C@@H](CC(C)C)C(=O)N(C)[C@@H](C(C)C)C(=O)N1C` [drawing 1932], the “Epimerization % in MeOH at 65° C.” value is 0% in data set [1] (Table 9, 2 hours); 0% in data set [1] (Table 9, 4 hours); 0% in data set [1] (Table 9, 10 hours); 0% in data set [1] (Table 9, 22 hours); 0% in data set [1] (Table 9, 30 hours); 0% in data set [1] (Table 9, 38 hours).

In the case of `C/C=C/C[C@@H](C)[C@@H](O)[C@H]1C(=O)N[C@@H](CC)C(=O)N(C)[C@H](SCCCN2CCOCC2)C(=O)N(C)[C@@H](C(C)CC)C(=O)N[C@@H](C(C)C)C(=O)N(C)[C@@H](CC(C)C)C(=O)N[C@@H](C)C(=O)N[C@H](C)C(=O)N(C)[C@@H](CC(C)C)C(=O)N(C)[C@@H](CC(C)C)C(=O)N(C)[C@@H](C(C)C)C(=O)N1C` (stereo partly shown) (cyclo(A[dA][NMeL][NMeL][NMeV][MeBmt][Abu][X1][NMeIle(3ξ)]V[NMeL])), the Epimerization % in data set [1] (29 hours), in data set [1] (77 hours) and in data set [1] (125 hours) was 0% throughout.

`C/C=C/C[C@@H](C)[C@@H](O)[C@H]1C(=O)N[C@@H](CC)C(=O)N(C)[C@H](CSCCN(C)C)C(=O)N(C)[C@@H](CC(C)C)C(=O)N[C@@H](C(C)C)C(=O)N(C)[C@@H](CC(C)C)C(=O)N[C@@H](C)C(=O)N[C@H](C)C(=O)N(C)[C@@H](CC(C)C)C(=O)N(C)[C@@H](CC(C)C)C(=O)N(C)[C@@H](C(C)C)C(=O)N1C` (single isomer, unassigned): the “Epimerization % after 168 hours” value in data set [1] came out at 0%.

`C/C=C/C[C@@H](C)[C@@H](O)[C@H]1C(=O)N[C@@H](CC)C(=O)N(C)[C@H](CSCCN(CC)CC)C(=O)N(C)[C@@H](CC(C)(C)O)C(=O)N[C@@H](C(C)C)C(=O)N(C)[C@@H](CC(C)C)C(=O)N[C@@H](C)C(=O)N[C@H](C)C(=O)N(C)[C@@H](CC(C)C)C(=O)N(C)[C@@H](CC(C)C)C(=O)N(C)[C@@H](C(C)C)C(=O)N1C`: in data set [1], the “Epimerization % after 168 hours” value came to 0%.

As to `C/C=C/C[C@@H](C)[C@@H](O)[C@H]1C(=O)N[C@@H](CC)C(=O)N(C)[C@H](SCCCN2CCOCC2)C(=O)N(C)[C@@H](CC(C)(C)O)C(=O)N[C@@H](C(C)C)C(=O)N(C)[C@@H](CC(C)C)C(=O)N[C@@H](C)C(=O)N[C@H](C)C(=O)N(C)[C@@H](CC(C)C)C(=O)N(C)[C@@H](CC(C)C)C(=O)N(C)[C@@H](C(C)C)C(=O)N1C` [drawing 1931], the “Epimerization % in MeOH at 65° C.” value in data set [1] (Table 8, 2 hours) is 0%; in data set [1] (Table 8, 4 hours) it was 0%; in data set [1] (Table 8, 6 hours), 0%; in data set [1] (Table 8, 8 hours), “Less than 1%”; in data set [1] (Table 8, 10 hours), about 10%.

Turning to `CC=CCC(C)C(O)C1C(=O)NC(CC)C(=O)N(C)C(CSCCN2CCCC2)C(=O)N(C)C(CC(C)(C)O)C(=O)NC(C(C)C)C(=O)N(C)C(CC(C)C)C(=O)NC(C)C(=O)NC(C)C(=O)N(C)C(CC(C)C)C(=O)N(C)C(CC(C)C)C(=O)N(C)C(C(C)C)C(=O)N1C` (stereo not shown), the pEC50 in data set [2] (setting [3]) is 6.96.

Take `C/C=C/C[C@@H](C)[C@@H](O)[C@H]1C(=O)N[C@@H](CC)C(=O)N(C)[C@H](COCCCN(C)C)C(=O)N(C)[C@@H](CC(C)(C)O)C(=O)N[C@@H](C(C)C)C(=O)N(C)[C@@H](CC(C)C)C(=O)N[C@@H](C)C(=O)N[C@H](C)C(=O)N(C)[C@@H](CC(C)C)C(=O)N(C)[C@@H](CC(C)C)C(=O)N(C)[C@@H](C(C)C)C(=O)N1C`: the pEC50 in data set [2] (setting [3]) was 6.59.

For the molecule `CC=CCC(C)C(O)C1C(=O)NC(CC)C(=O)N(C)C(CSCCCNCC(C)(C)C)C(=O)N(C)C(CC(C)(C)O)C(=O)NC(C(C)C)C(=O)N(C)C(CC(C)C)C(=O)NC(C)C(=O)NC(C)C(=O)N(C)C(CC(C)C)C(=O)N(C)C(CC(C)C)C(=O)N(C)C(C(C)C)C(=O)N1C` (stereo not shown), in data set [2] (setting [4]), the pEC50 was 7.30.

`CC=CCC(C)C(O)C1C(=O)NC(CC)C(=O)N(C)C(CSCCN2CCCC2)C(=O)N(C)C(CC(C)(C)OC)C(=O)NC(C(C)C)C(=O)N(C)C(CC(C)C)C(=O)NC(C)C(=O)NC(C)C(=O)N(C)C(CC(C)C)C(=O)N(C)C(CC(C)C)C(=O)N(C)C(C(C)C)C(=O)N1C` (stereo not shown): in data set [2] (setting [3]), the pEC50 is 7.05.

Consider `CC=CCC(C)C(O)C1C(=O)NC(CC)C(=O)N(C)C(CSCCN(CC)CC)C(=O)N(C)C(C(C)CC)C(=O)NC(C(C)C)C(=O)N(C)C(CC(C)C)C(=O)NC(C)C(=O)NC(C)C(=O)N(C)C(CC(C)C)C(=O)N(C)C(CC(C)C)C(=O)N(C)C(C(C)C)C(=O)N1C` [[(S)-(2-(N,N-Diethylamino)ethylthio)methyl-Sar]-3-[N-MeIle]-4-cyclosporin] (cyclo([X3][Abu][NMeC](Et2NCH2CH2)[NMeI]V[NMeL]AA[NMeL][NMeL][NMeV]); configuration not given here), for which the pEC50 in data set [2] (setting [3]) is 7.00.

For the molecule `CC=CCC(C)C(O)C1C(=O)NC(CC)C(=O)N(C)C(COCCCN(CC)CC)C(=O)N(C)C(CC(C)(C)O)C(=O)NC(C(C)C)C(=O)N(C)C(CC(C)C)C(=O)NC(C)C(=O)NC(C)C(=O)N(C)C(CC(C)C)C(=O)N(C)C(CC(C)C)C(=O)N(C)C(C(C)C)C(=O)N1C` (stereo not shown), the negative logarithm of the EC50 (pEC50) in data set [2] (setting [3]) was 6.74.

As to `CC=CCC(C)C(O)C1C(=O)NC(CC)C(=O)N(C)C(COCCN2CCCCC2)C(=O)N(C)C(CC(C)(C)O)C(=O)NC(C(C)C)C(=O)N(C)C(CC(C)C)C(=O)NC(C)C(=O)NC(C)C(=O)N(C)C(CC(C)C)C(=O)N(C)C(CC(C)C)C(=O)N(C)C(C(C)C)C(=O)N1C` [[(R)-(2-(N-Piperidinyl)ethoxy)methyl-Sar]-3-[(γ-hydroxy)-N-MeLeu]-4-cyclosporin], the pEC50 in data set [2] (setting [3]) was 6.85.

Take `CC=CCC(C)C(O)C1C(=O)NC(CC)C(=O)N(C)C(CSCCCCN(CC)CC)C(=O)N(C)C(CC(C)(C)O)C(=O)NC(C(C)C)C(=O)N(C)C(CC(C)C)C(=O)NC(C)C(=O)NC(C)C(=O)N(C)C(CC(C)C)C(=O)N(C)C(CC(C)C)C(=O)N(C)C(C(C)C)C(=O)N1C` (stereo not shown): the pEC50 in data set [2] (setting [4]) is 7.15.

Regarding `C/C=C/C[C@@H](C)[C@@H](O)[C@H]1C(=O)N[C@@H](CC)C(=O)N(C)[C@H](CSCCNC(C)C)C(=O)N(C)[C@@H](CC(C)(C)O)C(=O)N[C@@H](C(C)C)C(=O)N(C)[C@@H](CC(C)C)C(=O)N[C@@H](C)C(=O)N[C@H](C)C(=O)N(C)[C@@H](CC(C)C)C(=O)N(C)[C@@H](CC(C)C)C(=O)N(C)[C@@H](C(C)C)C(=O)N1C`, the pEC50 in data set [2] (setting [5]) was 6.72.

Regarding `C/C=C/C[C@@H](C)[C@@H](O)[C@H]1C(=O)N[C@@H](CC)C(=O)N(C)[C@H](CSCCNCC(C)(C)C)C(=O)N(C)[C@@H](CC(C)(C)O)C(=O)N[C@@H](C(C)C)C(=O)N(C)[C@@H](CC(C)C)C(=O)N[C@@H](C)C(=O)N[C@H](C)C(=O)N(C)[C@@H](CC(C)C)C(=O)N(C)[C@@H](CC(C)C)C(=O)N(C)[C@@H](C(C)C)C(=O)N1C`, the pEC50 in data set [2] (setting [5]) is 7.22; in data set [2] (Hepatitis C virus, Huh-7, Table 16, HCV replicon luciferase), 7.30.

With `C/C=C/C[C@@H](C)[C@@H](O)[C@H]1C(=O)N[C@@H](CC)C(=O)N(C)[C@H](CSCCN(CC)CC)C(=O)N(C)[C@@H](CC(C)(C)O)C(=O)N[C@@H](C(C)C)C(=O)N(C)[C@@H](CC(C)C)C(=O)N[C@@H](C)C(=O)N[C@H](C)C(=O)N(C)[C@@H](CC(C)C)C(=O)N(C)[C@@H](CC(C)C)C(=O)N(C)[C@@H](C(C)C)C(=O)N1C` (single isomer, unassigned), the pEC50 in data set [2] (Hepatitis C virus, Huh-7, Table 14, HCV replicon luciferase) was 7.52.

As for `CC=CCC(C)C(O)C1C(=O)NC(CC)C(=O)N(C)C(COCCN2CCCC2)C(=O)N(C)C(CC(C)(C)O)C(=O)NC(C(C)C)C(=O)N(C)C(CC(C)C)C(=O)NC(C)C(=O)NC(C)C(=O)N(C)C(CC(C)C)C(=O)N(C)C(CC(C)C)C(=O)N(C)C(C(C)C)C(=O)N1C` [[(R)-(2-(N-Pyrrolidino)ethoxy)methyl-Sar]-3-[(γ-hydroxy)-N-MeLeu]-4-cyclosporin], the pEC50 in data set [2] (setting [3]) is 6.70.
